Legend:
[1] = tested on: human norovirus GII. 6 strain; assay: Human norovirus proliferation inhibition test by use of 6a-fucose (real-time RT-PCR of genomic RNA), GII.6 strain; format: cell-based
Description: (§1) To a medium containing the 2D organoid, 6a-fucose was added so as to adjust a final concentration of 0 μM, 1.6 μM, 8 μM, 40 μM, and 200 μM, and culturing for differentiation induction was performed for 4 days. The culturing was performed by means of a 96-well plate in which 3 wells were dedicated for each 6a-fucose addition system, and one test plate was used for one human norovirus tested. The human norovirus tested included the GII.4 strain and GII. 6 strain. The culturing was performed in a CO2 gas incubator controlled at 37° C.
(§2) On day 4 of culturing, the medium was removed, and the plate was washed with a new medium. Subsequently, each human norovirus was added at 10^5 RNA copies to the plate for infection, and static culturing was performed for 3 hours. After completion of the infection treatment, human norovirus remaining in the medium was removed together with the medium, and the plate was washed thrice with a new medium.
(§3) After washing, 6a-fucose was added again to the new medium so as to adjust a final concentration to 0 μM, 1.6 μM, 8 μM, 40 μM, and 200 μM, and culturing was performed for 6 days.
(§4) A portion (10 μL) of the culture medium was collected from each well at three timings: (a) immediately after the addition to the new medium, (b) on day 3, and (c) on day 6. The sample was centrifuged at 10,000 g for 10 minutes, and the cell precipitate was removed. The human norovirus genomic RNA contained in the supernatant (1 μL) was quantitated through real-time RT-PCR.
(§5) In FIG. 13, the effects of use of 6a-fucose are shown with respect to (a) human norovirus GII. 4 strain and (b) human norovirus GII. 6 strain. The vertical axis in FIG. 13 represents the copy number of human norovirus genomic RNA (RNA titer), and the numeral under each bar graph represents the time of culturing from the start of the test.

2D organoid = assay: Cytotoxicity of 6a-fucose to cultured 2D organoid (mono-layer sheet still alive); format: cell-based, human; conditions: 6a-fucose 1.6 to 200 μM, any of the tested concentrations
Description: as §1

[2] = tested on: human norovirus GII. 4 strain or GII. 6 strain; assay: Effect of treatment with 2fp-fucose or 6a-fucose after differentiation, on infection and reinfection (RNA titer by real-time RT-PCR); format: cell-based; conditions: fucose analog 200 μM added on day 5, infection on day (5+2), 3 days culturing
Description: (a) The 2D organoid was disseminated to a 96-well plate. After completion of differentiation induction, two fucose analogs (i.e., 2fp-fucose and 6a-fucose) were each added on day 5 to a concentration of 200 μM, to thereby provide addition groups. The results are shown in FIG. 14(a) and FIG. 14(b), respectively. A non-addition group (untreated group) was also provided. Subsequently, the medium was removed from the wells on day (5+2), and the plate was washed. Then, infection with the GII. 4 strain or the GII. 6 strain was performed.
After the infection treatment, the human norovirus remaining in the medium was removed together with the medium, and the plate was washed thrice with a new medium. After washing, the aforementioned active ingredients were each added to the new medium to a concentration of 200 μM (addition groups), and no addition was performed with respect to the untreated (i.e., non-addition) group. Culturing was performed for 3 days. A portion (10 μL) of the medium was sampled from each well, and the samples were centrifuged at 10,000 g for 10 minutes, to thereby remove cell precipitates. The amount of human norovirus genomic RNA in the supernatant (1 μL) was determined through real-time RT-PCR.
In the test system, the effect of the anti-norovirus agent of the present invention provided after human norovirus infection was estimated on the basis of the following study. Specifically, among the fucose analog-treated 2D organoid cells, the living cells on growth day 3 (i.e., most of them were not infected with human norovirus, by virtue of the effect of the fucose analog) were subjected to a secondary infection operation (i.e., reinfection). The effect of the fucose analog on the reinfection was investigated.
In a specific procedure, the addition groups were prepared through the same procedure as employed in (a) above. The primarily infected cells were cultured in the presence of the fucose analog (200 μM) for 3 days, and the medium was removed from each culture system. After completion of washing, the cells were infected again with human norovirus, and then the virus was removed together with the medium. After completion of the next washing, a medium containing the fucose analog (200 μM) (represented by Reinf+2f-fuc or Reinf+6a-fuc), or a fucose analog-free medium (represented by Reinf−2f-fuc or Reinf−6a-fuc) was added thereto, and culturing was performed for further 3 days. Similar to the above case, the amount of human norovirus released to the supernatant was determined as an RNA titer. In the graphs, the two bars on the right side correspond to (Reinf+2f-fuc and Reinf+6a-fuc) or (Reinf−2f-fuc and Reinf−6a-fuc).

[3] = tested on: human norovirus GII. 4 strain; assay: Human norovirus proliferation inhibition test by use of 6a-fucose (real-time RT-PCR of genomic RNA), GII.4 strain; format: cell-based
Description: as §1, §2, §3, §4, §5

[4] = tested on: human norovirus GII.4 (K2017 strain); assay: Human norovirus proliferation inhibition in 2D organoid after agent pre-treatment, GII.4 strain; format: cell-based; conditions: GII.4, 3 days treatment before infection
Description: Feces of a human norovirus-infected patent contains a large amount of infectious human norovirus. Thus, the feces of a human norovirus-infected patient is suspended in distilled water or the like to a final concentration of about 10%, to thereby prepare a “10% feces suspension.” The 10% feces suspension is about 10-fold diluted with an ENRA medium. The diluted suspension is added to each of the aforementioned wells having the 2D organoid (5 μL/well) and subjected to incubation for about 3 hours, to thereby proliferate human norovirus. As a result of verification, it has been confirmed that human norovirus proliferates to about 100,000 times the initial count through the culture system employing the 2D organoid.
In the Example, there were tested strains of human norovirus obtained from feces of human norovirus infection patients through the aforementioned procedure and stocked before the test. Specifically, three strains belonging to the genetic group 2 (GII) which accounts for 80 to 90% of the infected patients were selected as test targets. The isolated strain lineages included in GII (FIG. 1) were GII. 6 belonging to “Lineage 1,” GII. 3 belonging to “Lineage 2,” and GII.4 belonging to “Lineage 3” (GII. 6: K2017 strain, GII.3: TCH2004 strain, and GII. 4: K2017 strain).
The effect of 2fp-fucose treatment on proliferation of human norovirus was investigated for each lineage of norovirus. Specifically, after the 2fp-fucose treatment for 3 days, the 2D organoid was infected with each of the aforementioned norovirus strains GII.6, GII. 3, and GII. 4, and the viral proliferation amount was determined on days 3 and 6 after infection (FIG. 4).
Next, there was investigated the effect of the period of time (the number of days) of the 2fp-fucose treatment performed in advance on the anti-human norovirus action of the fucose analog. Specifically, the strain GII. 4 was treated with 2fp-fucose (several concentrations) for 1 to 4 days. […] However, in the group of 3-day treatment, the proliferation inhibition effect was observed by the 200 μM treatment with a certain range of variation in effectiveness. In the group of 4-day treatment, the proliferation inhibition effect was initially observed by 8 μM treatment, and the effect increased in a concentration-dependent manner to a 2fp-fucose concentration of 200 μM. […] Thus, the highest proliferation inhibition effect was obtained in the 2D organoid system through a 200 μM treatment for 3 to 4 days. The test was repeatedly performed three times. Error bars denote SEMs.
The 2D organoid was treated with an agent for 3 days. The tested agents were (a) 2fp-fucose (200 μM), (b) Sofosbuvir (1 μM), (c) Lamivudine (1 μM), (d) Ribavirin (400 μM), and (e) Mizoribine (100 μM). Subsequently, the thus-treated 2D organoid was infected with human norovirus (the norovirus strain GII.4), and the proliferation inhibition effect was determined (FIG. 6). The test was repeatedly performed three times. Error bars denote SEMs.

Q: `C#C[C@@H]1OC(OC(C)=O)[C@@H](OC(C)=O)[C@H](OC(C)=O)[C@@H]1OC(C)=O` (stereo partly drawn) [6a-fucose, 1,2,3,4-tetra-O-acetyl-6,7-dideoxy-L-galacto-hept-6-ynopyranose] was tested. Which proliferation inhibition effect ([1]; 6a-fucose 1.6 μM) did it give?
A: not recognized

Q: What about the “human norovirus genome proliferation” value ([1]; 6a-fucose 8 μM, culture days 3 and 6) of the same compound?
A: actively suppressed

Q: What about the “human norovirus genome proliferation” value ([1]; 6a-fucose 40 μM) of the same compound?
A: completely inhibited

Q: And the “cytotoxicity to cultured cells (2D organoid)” value (2D organoid)?
A: no cytotoxicity attributed to addition of 6a-fucose was observed

Q: And the “rise in RNA titer (proliferation of human norovirus) in the addition group” value [2]?
A: no rise in RNA titer

Q: What about the “rise in RNA titer of the untreated group with respect to the administration system” value [2] of the same compound?
A: ≥ 150 fold

Q: And the “rise in RNA titer relative to the titer at the start of culturing” value ([3]; 6a-fucose 8 μM)?
A: about 10 times

Q: What about the “rise in RNA titer” value ([3]; 6a-fucose 40 μM, day 6) of the same compound?
A: no substantial increase in RNA titer was observed

Q: What about the “rise in RNA titer” value ([3]; 6a-fucose 200 μM) of the same compound?
A: completely inhibited

Q: What about the “6a-fucose concentration at which the proliferation inhibition effect emerged” value ([3]; 4 days pre-treatment, 6 days culturing after infection) of the same compound?
A: 1.6 µM

Q: What about the “RNA titer relative to the titer at the start of culturing” value ([3]; each 6a-fucose treatment group (any concentration), culture day 6) of the same compound?
A: ≤ 100 times

Q: With `NC(=O)c1ncn([C@@H]2O[C@H](CO)[C@@H](O)[C@H]2O)c1O` [Mizoribine, reference compound] as the compound, how does the “viral RNA titer from day 0 to day 7 (proliferation inhibition effect)” value ([4]; agent 100 μM) read?
A: no effect of inhibiting proliferation of human norovirus

Q: With `NC(=O)c1ncn([C@@H]2O[C@H](CO)[C@@H](O)[C@H]2O)n1` [Ribavirin, reference compound] as the compound, how does the “viral RNA titer from day 0 to day 7 (proliferation inhibition effect)” value ([4]; agent 400 μM) read?
A: no effect of inhibiting proliferation of human norovirus

Q: Which “viral RNA titer from day 0 to day 7 (proliferation inhibition effect)” value ([4]; agent 1 μM) does the source give for `CC(C)OC(=O)[C@H](C)N[P@](=O)(OC[C@H]1O[C@@H](n2ccc(=O)[nH]c2=O)[C@](C)(F)[C@@H]1O)Oc1ccccc1` [Sofosbuvir, reference compound] here?
A: no effect of inhibiting proliferation of human norovirus
